Values joined by “and” are separate entries in the source; they are usually repeats but may differ in a detail not shown here. Identical values can stand only once. Like-named read-outs stand apart in the source and are kept apart here.
Tests used:
[1] = molecular target: FynT enzyme (Homo sapiens (Human), UniProt P06241); experiment: FynT enzyme activity (IMAP fluorescence polarization assay); assay type: biochemical; conditions: 60 min pre-incubation, 0.2 μM ATP
In short: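 Human FynT pre-incubated with compounds 60 min at room temperature, then reacted 2 h at room temperature with fluorescein-labelled p34cdc2 peptide (100 nM final). Stopped with IMAP binding solution; fluorescence polarization read after 60 min. Activity as % of ±ATP control difference; EC50 by curve fitting.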

[2] = molecular target: Btk enzyme (His-Btk) (Homo sapiens (Human), UniProt Q06187); experiment: Btk enzyme activity (IMAP fluorescence polarization assay)
Chain of Btk enzyme (His-Btk) (Q06187 whole entry): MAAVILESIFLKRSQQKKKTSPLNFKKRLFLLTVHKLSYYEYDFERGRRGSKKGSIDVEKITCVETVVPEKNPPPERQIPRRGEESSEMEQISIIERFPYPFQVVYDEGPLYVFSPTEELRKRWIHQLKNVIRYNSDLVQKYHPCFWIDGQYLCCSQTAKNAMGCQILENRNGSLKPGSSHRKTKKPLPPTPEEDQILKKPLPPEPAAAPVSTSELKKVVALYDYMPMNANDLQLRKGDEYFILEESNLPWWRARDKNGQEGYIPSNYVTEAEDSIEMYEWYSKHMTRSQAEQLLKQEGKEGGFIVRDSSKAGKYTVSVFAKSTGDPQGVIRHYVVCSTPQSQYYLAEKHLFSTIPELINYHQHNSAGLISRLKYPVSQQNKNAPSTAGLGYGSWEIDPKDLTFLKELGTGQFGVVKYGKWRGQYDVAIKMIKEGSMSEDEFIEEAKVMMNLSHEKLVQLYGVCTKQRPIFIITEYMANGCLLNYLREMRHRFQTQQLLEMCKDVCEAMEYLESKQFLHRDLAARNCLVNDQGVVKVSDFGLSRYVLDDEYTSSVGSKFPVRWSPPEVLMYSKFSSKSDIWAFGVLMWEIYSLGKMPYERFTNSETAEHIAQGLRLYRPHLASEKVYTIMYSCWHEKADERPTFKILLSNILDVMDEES

[3] = molecular target: Lck enzyme (Homo sapiens (Human), UniProt P06239); experiment: Lck enzyme activity (IMAP fluorescence polarization assay)
Chain of Lck enzyme (P06239 whole entry): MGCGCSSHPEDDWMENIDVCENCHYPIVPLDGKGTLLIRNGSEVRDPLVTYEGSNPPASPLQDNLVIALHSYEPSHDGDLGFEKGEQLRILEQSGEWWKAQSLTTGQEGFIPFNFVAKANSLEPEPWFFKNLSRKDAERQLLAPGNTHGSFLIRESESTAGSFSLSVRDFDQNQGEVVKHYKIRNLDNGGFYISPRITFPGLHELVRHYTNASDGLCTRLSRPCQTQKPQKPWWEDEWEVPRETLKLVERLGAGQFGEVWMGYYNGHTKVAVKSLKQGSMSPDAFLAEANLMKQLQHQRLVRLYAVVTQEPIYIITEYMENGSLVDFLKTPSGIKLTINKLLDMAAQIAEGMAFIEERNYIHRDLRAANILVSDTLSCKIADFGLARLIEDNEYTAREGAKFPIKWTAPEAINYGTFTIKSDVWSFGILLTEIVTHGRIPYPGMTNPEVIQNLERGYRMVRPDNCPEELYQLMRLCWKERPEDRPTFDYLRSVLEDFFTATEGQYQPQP

[4] = molecular target: Src enzyme (Homo sapiens (Human), UniProt P12931); experiment: Src enzyme activity (IMAP fluorescence polarization assay); conditions: read-out: EC50 Src activity values; IMAP, 60 min pre-incubation, 4 μM ATP
Chain of Src enzyme (P12931 whole entry, looked up): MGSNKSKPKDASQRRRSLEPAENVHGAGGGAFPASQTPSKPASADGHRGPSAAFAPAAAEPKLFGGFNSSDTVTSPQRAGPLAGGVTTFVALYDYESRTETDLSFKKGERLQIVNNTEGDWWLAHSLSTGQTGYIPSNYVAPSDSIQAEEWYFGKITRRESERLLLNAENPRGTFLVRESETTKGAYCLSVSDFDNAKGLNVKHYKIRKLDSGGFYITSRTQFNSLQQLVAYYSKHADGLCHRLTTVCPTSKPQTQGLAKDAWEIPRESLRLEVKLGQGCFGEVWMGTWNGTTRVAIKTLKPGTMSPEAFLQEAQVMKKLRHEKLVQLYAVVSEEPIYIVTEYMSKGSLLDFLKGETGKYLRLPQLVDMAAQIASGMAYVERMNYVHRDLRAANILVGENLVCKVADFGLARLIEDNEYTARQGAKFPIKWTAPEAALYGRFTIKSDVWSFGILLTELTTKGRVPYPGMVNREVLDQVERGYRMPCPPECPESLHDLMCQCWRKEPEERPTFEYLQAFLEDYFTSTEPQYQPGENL

[5] = molecular target: Lyn enzyme (Homo sapiens (Human), UniProt P07948); experiment: Lyn enzyme activity (IMAP fluorescence polarization assay)
Chain of Lyn enzyme (P07948 whole entry): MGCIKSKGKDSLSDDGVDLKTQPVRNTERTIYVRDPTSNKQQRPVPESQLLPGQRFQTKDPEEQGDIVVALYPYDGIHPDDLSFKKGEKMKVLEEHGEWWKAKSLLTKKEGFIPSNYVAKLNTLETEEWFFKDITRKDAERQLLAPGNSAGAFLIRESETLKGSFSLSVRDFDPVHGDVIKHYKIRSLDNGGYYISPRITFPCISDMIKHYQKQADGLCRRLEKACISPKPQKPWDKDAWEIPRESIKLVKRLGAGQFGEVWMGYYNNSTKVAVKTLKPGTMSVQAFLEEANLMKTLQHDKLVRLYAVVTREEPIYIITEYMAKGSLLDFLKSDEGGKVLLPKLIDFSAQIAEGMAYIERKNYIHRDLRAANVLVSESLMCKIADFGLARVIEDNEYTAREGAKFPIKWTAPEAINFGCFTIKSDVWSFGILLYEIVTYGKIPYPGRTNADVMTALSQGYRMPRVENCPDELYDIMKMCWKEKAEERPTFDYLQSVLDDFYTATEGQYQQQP

[6] = read-out: EC50 Btk activity values, IMAP, 60 min pre-incubation, 5 μM ATP, bin bound in nM
[7] = read-out: EC50 Lck activity values, IMAP, 60 min pre-incubation, 6 μM ATP, bin bound in μM
[8] = read-out: EC50 Lyn activity values, 60 min pre-incubation, 2 μM ATP, bin bound in μM
[9] = IMAP, 60 min pre-incubation, 5 μM ATP, bin bound in μM
[10] = IMAP, 60 min pre-incubation, 5 μM ATP, bin bound in nM

Chain of FynT enzyme (P06241 other isoform, or with tags, fused parts or gaps): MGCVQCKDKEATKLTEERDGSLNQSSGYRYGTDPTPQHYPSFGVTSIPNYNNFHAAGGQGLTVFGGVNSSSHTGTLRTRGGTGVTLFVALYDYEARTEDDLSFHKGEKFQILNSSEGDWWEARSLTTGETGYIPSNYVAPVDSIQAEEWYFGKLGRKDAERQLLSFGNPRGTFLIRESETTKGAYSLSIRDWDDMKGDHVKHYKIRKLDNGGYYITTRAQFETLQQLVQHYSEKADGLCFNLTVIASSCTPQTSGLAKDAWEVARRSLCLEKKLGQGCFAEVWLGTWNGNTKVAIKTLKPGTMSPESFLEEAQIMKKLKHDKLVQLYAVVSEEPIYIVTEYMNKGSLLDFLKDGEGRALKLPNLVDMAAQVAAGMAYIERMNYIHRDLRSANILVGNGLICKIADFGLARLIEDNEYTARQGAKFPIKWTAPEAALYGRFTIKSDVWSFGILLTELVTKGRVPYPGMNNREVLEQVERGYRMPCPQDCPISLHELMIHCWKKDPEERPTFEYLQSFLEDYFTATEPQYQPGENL

SMILES	EC50 [1]	EC50 [2, 6]	EC50 [3, 7]	EC50 [4]	EC50 [5, 8]	EC50 [2]	EC50 Btk activity values [2, 9]	EC50 Btk activity values [2, 10]	EC50 [3]	EC50 Lck activity values ([3]; IMAP, 60 min pre-incubation, 6 μM ATP, bin bound in μM)	EC50 ([5]; EC50 Lyn activity values, 60 min pre-incubation, 2 μM ATP, bin bound in nM)	EC50 ([5]; EC50 Lyn activity values, 60 min pre-incubation, 2 μM ATP, bin bound in μM)
C=CC(=O)N1CCC[C@H]1c1nc(-c2ccc(C(=O)Nc3ccccn3)c(OC)c2)c2c(N)nccn12 [Example 14, (S)-4-(3-(1-Acryloylpyrrolidin-2-yl)-8-aminoimidazo[1,5-a]pyrazin-1-yl)-2-methoxy-N-(pyridin-2-yl)benzamide]	≥ 1000 nM	< 10 nM	≥ 1 µM	≥ 1000 nM	≥ 1 µM							
C=CS(=O)(=O)N1CCCC[C@H]1c1nc(-c2ccc(C(=O)Nc3ccccn3)cc2C)c2c(N)nccn12 [Example 66, 4-(8-amino-3-((S)-1-(vinylsulfonyl)piperidin-2-yl)imidazo[1,5-a]pyrazin-1-yl)-3-methyl-N-(pyridin-2-yl)benzamide]	≥ 1000 nM	< 10 nM	≥ 1 µM	≥ 1000 nM	≥ 1 µM							
CC#CC(=O)N(C)[C@@H](C)c1nc(-c2ccc(C(=O)Nc3cc(C(F)(F)F)ccn3)cc2)c2c(N)nccn12 [Example 39, (S)-4-(8-amino-3-(1-(N-methylbut-2-ynamido)ethyl)imidazo[1,5-a]pyrazin-1-yl)-N-(4-(trifluoromethyl)pyridin-2-yl)benzamide]	≥ 1000 nM	< 10 nM	≥ 1 µM	≥ 1000 nM	≥ 1 µM							
COC/C=C/C(=O)NCc1nc(-c2ccc(C(=O)Nc3ccccn3)cc2)c2c(N)nccn12 [Example 95, (E)-4-(8-amino-3-((4-methoxybut-2-enamido)methyl)imidazo[1,5-a]pyrazin-1-yl)-N-(pyridin-2-yl)benzamide]	≥ 1000 nM		≥ 1 µM	≥ 1000 nM	≥ 1 µM	10 to 100 nM		<0.1 µM				
COC/C=C/C(=O)N1CCC[C@H]1c1nc(-c2ccc(C(=O)Nc3ccccn3)c(OC)c2)c2c(N)nccn12 [Example 103, (S,E)-4-(8-amino-3-(1-(4-methoxybut-2-enoyl)pyrrolidin-2-yl)imidazo[1,5-a]pyrazin-1-yl)-2-methoxy-N-(pyridin-2-yl)benzamide]	≥ 1000 nM		≥ 1 µM	≥ 1000 nM	≥ 1 µM	10 to 100 nM		<0.1 µM				
Cc1ccnc(NC(=O)c2ccc(-c3nc([C@@H]4CCCN4C(=O)/C=C/CN(C)C)n4ccnc(N)c34)cc2)c1 [Example 59, (S,E)-4-(8-amino-3-(1-(4-(dimethylamino)but-2-enoyl)pyrrolidin-2-yl)imidazo[1,5-a]pyrazin-1-yl)-N-(4-methylpyridin-2-yl)benzamide]	≥ 1000 nM		≥ 1 µM	≥ 1000 nM	≥ 1 µM	10 to 100 nM		<0.1 µM				
CC#CC(=O)N1CCC[C@H]1c1nc(-c2ccc(C(=O)Nc3nccs3)cc2)c2c(N)nccn12 [Example 60, (S)-4-(8-amino-3-(1-but-2-ynoylpyrrolidin-2-yl)imidazo[1,5-a]pyrazin-1-yl)-N-(thiazol-2-yl)benzamide]	≥ 1000 nM			≥ 1000 nM		10 to 100 nM		<0.1 µM	0.1 to 1 µM	<1 µM	≥ 0.1 µM	< 1 µM and ≥ 1 µM
C=CC(=O)N1CCC[C@H]1c1nc(-c2ccc(C(=O)Nc3cc(N4CCCC4)ccn3)cc2)c2c(N)nccn12 [Example 43, (S)-4-(3-(1-acryloylpyrrolidin-2-yl)-8-aminoimidazo[1,5-a]pyrazin-1-yl)-N-(4-(pyrrolidin-1-yl)pyridin-2-yl)benzamide]	≥ 1000 nM	< 10 nM	≥ 1 µM	≥ 1000 nM	≥ 1 µM							
CC#CC(=O)N1CCCC[C@H]1c1nc(-c2ccc(C(=O)Nc3ccccn3)cc2C)c2c(N)nccn12 [Example 28, 4-(8-Amino-3-((S)-1-but-2-ynoylpiperidin-2-yl)imidazo[1,5-a]pyrazin-1-yl)-3-methyl-N-(pyridin-2-yl)benzamide]	≥ 1000 nM	< 10 nM	≥ 1 µM	≥ 1000 nM	≥ 1 µM							
CC#CC(=O)N1CCC[C@H]1c1nc(-c2ccc(C(=O)Nc3cc(OC)ccn3)cc2)c2c(N)nccn12 [Example 123, (S)-4-(8-amino-3-(1-but-2-ynoylpyrrolidin-2-yl)imidazo[1,5-a]pyrazin-1-yl)-N-(4-methoxypyridin-2-yl)benzamide]	≥ 1000 nM	< 10 nM	≥ 1 µM	≥ 1000 nM	≥ 1 µM							
C=CC(=O)N1CCCC[C@H]1c1nc(-c2ccc(C(=O)Nc3ccccn3)cc2C)c2c(N)nccn12 [Example 68, 4-(3-((S)-1-acryloylpiperidin-2-yl)-8-aminoimidazo[1,5-a]pyrazin-1-yl)-3-methyl-N-(pyridin-2-yl)benzamide]	≥ 1000 nM		≥ 1 µM	≥ 1000 nM	≥ 1 µM	100 to 1000 nM	<1 µM					

The remaining lines, values ahead:

EC50 [1]	EC50 [2, 6]	EC50 [3, 7]	EC50 [4]	EC50 [5, 8]	EC50 [2]	EC50 Btk activity values [2, 9]	EC50 Btk activity values [2, 10]	EC50 [3]	EC50 Lck activity values ([3]; IMAP, 60 min pre-incubation, 6 μM ATP, bin bound in μM)	EC50 ([5]; EC50 Lyn activity values, 60 min pre-incubation, 2 μM ATP, bin bound in nM)	EC50 ([5]; EC50 Lyn activity values, 60 min pre-incubation, 2 μM ATP, bin bound in μM)	SMILES
≥ 1000 nM		≥ 1 µM	≥ 1000 nM	≥ 1 µM	100 to 1000 nM	<1 µM						Nc1nccn2c([C@@H]3CCCCN3C(=O)c3ccnc(Cl)n3)nc(-c3ccc(C(=O)Nc4ncccn4)cc3)c12 [Example 90, (S)-4-(8-amino-3-(1-(2-chloropyrimidine-4-carbonyl)piperidin-2-yl)imidazo[1,5-a]pyrazin-1-yl)-N-(pyrimidin-2-yl)benzamide]
≥ 1000 nM	< 10 nM	≥ 1 µM	≥ 1000 nM	≥ 1 µM								COC/C=C/C(=O)N1CCCC[C@H]1c1nc(-c2ccc(C(=O)Nc3ccccn3)cc2)c2c(N)nccn12 [Example 16, (S,E)-4-(8-Amino-3-(1-(4-methoxybut-2-enoyl)piperidin-2-yl)imidazo[1,5-a]pyrazin-1-yl)-N-(pyridin-2-yl)benzamide]
≥ 1000 nM	< 10 nM	≥ 1 µM	≥ 1000 nM	≥ 1 µM								CC#CC(=O)N1CCCC[C@H]1c1nc(-c2ccc(C(=O)Nc3cccnn3)cc2)c2c(N)nccn12 [Example 23, (S)-4-(8-Amino-3-(1-but-2-ynoylpiperidin-2-yl)imidazo[1,5-a]pyrazin-1-yl)-N-(pyridazin-3-yl)benzamide]
≥ 1000 nM		≥ 1 µM	≥ 1000 nM	≥ 1 µM	10 to 100 nM		<0.1 µM					Nc1nccn2c([C@@H]3CCCCN3C(=O)c3ccnc(Cl)n3)nc(-c3ccc(C(=O)Nc4cc(F)ccn4)cc3)c12 [Example 80, (S)-4-(8-amino-3-(1-(2-chloropyrimidine-4-carbonyl)piperidin-2-yl)imidazo[1,5-a]pyrazin-1-yl)-N-(4-fluoropyridin-2-yl)benzamide]
≥ 1000 nM	< 10 nM	≥ 1 µM	≥ 1000 nM	≥ 1 µM								C=CC(=O)N1CCCC[C@H]1c1nc(-c2ccc(C(=O)Nc3cc(C#N)ccn3)cc2)c2c(N)nccn12 [Example 18, (S)-4-(3-(1-Acryloylpiperidin-2-yl)-8-aminoimidazo[1,5-a]pyrazin-1-yl)-N-(4-cyanopyridin-2-yl)benzamide]

Source: US9758524B2, “4-imidazopyridazin-1-yl-benzamides as Btk inhibitors” (Merck Sharp & Dohme B.V., priority 2011, dated 2017)
